Experimental data taken from patent US20250387458A1, “COACTIVE COMBINATIONS OF ANTIMICROBIALS WITH DISPERSINB” (KANE BIOTECH INC., priority 2020, published 2025).
“Also recorded” adds a separate entry of the source. Structures can show the parent of a compound that is named as a salt. Positions of bridges follow the written chain, without caps; N, C: chain ends. Non-standard residues stand in square brackets, D forms with d. Residues, ends and D or L forms follow the SMILES beside them. ξ: configuration not given here. *: point of attachment. X1 = CC[C@H](C)CCCCC(=O)*; dDab = NCC[C@@H](N)C(=O)O; Dab = NCC[C@H](N)C(=O)O; ξDab = NCCC(N)C(=O)O

Key:
S. epidermidis biofilm [1] = assay: Compatibility between antimicrobials or antibiotics and DspB, biofilm dispersal assay in buffer (Method 3); assay type: cell-based, Staphylococcus epidermidis; details: for Biofilm dispersal when DspB and antimicrobial were added together: 20 μg/ml DspB, mixture used at 0 and 2 h, 10 min treatment
Procedure: Method 3: Method to Test Compatibility Between Antimicrobials or Antibiotics and DspB Using Biofilm Dispersal Assay
S. epidermidis biofilm was grown in 96-well plate and washed three times using sterile water to remove planktonic cells. Antimicrobials or antibiotics and DspB formulations were prepared in 50 mM phosphate or citrate buffer and stored at 37° C. for 2 h and used for treating biofilm at 0 and 2 h. Biofilm was treated using antimicrobials or antibiotics and DspB formulations for 10 min. After treatments, solutions were removed and washed 3 times to remove dispersed biofilm. Remaining biofilms in 96-well plates were stained using Crystal violet, unbound crystal violet was removed by washing the wells with sterile water, the biofilm bound crystal violet was eluted using 33% acetic acid, and the absorbance at 620 nm was taken using a microwell plate reader. Percent biofilm removal was calculated. Data was analyzed using ANOVA and Tukey's test.

DspB [2] = assay: Compatibility between antimicrobials or antibiotics and DspB in gel, enzymatic assay (Method 6); assay type: biochemical, Aggregatibacter actinomycetemcomitans; details: for Enzymatic activity of DspB in the presence of the antimicrobial compared with DspB control: P≤0.05, carvacrol and cinnamaldehyde at 0-30 min, chloroxylenol at 5, 10, 20 and 60 min
Procedure: Method 6: Method to Test Compatibility Between Antimicrobials or Antibiotics and DspB in Gel Using Enzymatic Assay
DspB gel containing 200 μg/ml DspB, 16% […] (PF127), 50 mM Phosphate buffer or citrate, 100 mM NaCl, pH 5.9, and 2× concentrated antimicrobial agent/antibiotics in 16% Poloxamer 405, 50 mM Phosphate buffer, 100 mM NaCl, pH 5.9 were mixed in equal proportions. 4×5 μL aliquots were withdrawn at 0, 5, 10, 20, 30, 60, and 120 min for measurement of DspB enzymatic activity. DspB enzymatic activity was measured using β-N-acetylglucosaminidase assay kit from Sigma (product code CS0780) in 96-well microtiter plate following the manufacturer's instructions. The plate was incubated for 30 minutes before terminating the reaction. Data analysis was done in Excel. Student T test (paired) was performed for each time point separately using DspB activity in mixture and in control sample as two set of variables. […]

DspB [3] = assay: Compatibility between antimicrobials or antibiotics and DspB, enzymatic assay in buffer (Method 4); assay type: biochemical, Aggregatibacter actinomycetemcomitans
Procedure: Method 4: Method to Test Compatibility Between Antimicrobials or Antibiotics and DspB Using Enzymatic Assay
DspB (200 μg/mL) and antimicrobial agent/antibiotic stocks were prepared in respective buffers. 10 mM paranitrophenol (PNP) in 400 mM sodium carbonate, and the buffer (same DspB stock) was used as the standard solution, and negative control, respectively. DspB stock and antimicrobial stock were mixed in equal proportions, and then 4×5 μl samples were taken at defined time points (0, 5, 10, 20, 30, 60, and 120 min) and used to measure the DspB enzyme activity. DspB enzymatic activity was measured using β-N-Acetylglucosaminidase assay kit from Sigma (product code CS0780) in 96-well microtiter plate following the manufacturer's instructions. The plate was incubated for 30 minutes before terminating the reaction. Data analysis was done in Excel. Student T test (paired) was performed for each time point separately using DspB activity in mixture and in control sample as two set of variables.

E. coli biofilm = assay: Inactivation of biofilm embedded bacteria using liquid buffer formulation (Method 1), E. coli; assay type: cell-based, Escherichia coli; details: antimicrobial plus DspB vs antimicrobial alone
Procedure: (§1) Method 1: Method to Test Inactivation of Biofilm Embedded Bacteria Using Liquid Buffer Formulation
(§2) S. epidermidis or E. coli biofilm were each grown in 96-well plate and washed three times to remove planktonic cells. Then biofilm was treated using 50 mM phosphate or citrate buffer, (no treatment control), buffer solutions containing DspB at 10-200 μg/ml, buffer solution containing antimicrobial alone, and buffer solution DspB plus antimicrobial for varying exposure times (10 min-3 h). After treatments, biofilm embedded bacteria was dispersed, diluted serially and plated on Tryptic soy agar plates. Data was analyzed using ANOVA and Tukey's test.

S. epidermidis biofilm [4] = assay: Inactivation of biofilm embedded bacteria using liquid buffer formulation (Method 1), S. epidermidis; assay type: cell-based, Staphylococcus epidermidis; details: for Biofilm inactivation: buffer formulation, antimicrobial tested with DspB; for Effect of DspB on activity of the antimicrobial against biofilm embedded S. epidermidis: buffer, antimicrobial plus DspB vs antimicrobial alone, P<0.05
Procedure: as §1, §2

S. epidermidis biofilm [5] = assay: Biofilm dispersal by DspB gel formulations (Method 5); assay type: cell-based, Staphylococcus epidermidis; details: for Biofilm dispersal of gel containing DspB and antimicrobial compared with gel containing DspB alone: PF127 gel, 20 μg/ml DspB
Procedure: Method 5: Method to Test Biofilm Dispersal by DspB Gel Formulations
S. epidermidis biofilm was grown in 96-well plate and washed three times to remove planktonic cells. Then biofilm was treated using different DspB formulations appropriate treatment duration (10 min-1 h). After treatments, gels were removed and washed 3 times with sterile distilled water to remove excess gel and dispersed biofilm. Remaining biofilms in 96-well plates were stained using Crystal violet and unbound crystal violet was removed by washing the wells with sterile water, the biofilm bound crystal violet was eluted using 33% acetic acid, and the absorbance at 620 nm was taken using a microwell plate reader.
Gels containing DspB and selected concentrations of antimicrobials were formulated in 50 mM phosphate buffer or citrate buffer containing 16% PF127. DspB gel and antimicrobial gel were mixed together and incubated at 37° C. for 2 h. Biofilm dispersal was performed at 0 and 2 h using biofilm dispersal assay (Method 5). Blank gel, DspB gel and antimicrobial gels were included as controls.

[6] = gel formulation, 100 μg/ml DspB

Compound: Cc1ccc(C(C)C)cc1O [Carvacrol]
- Biofilm dispersal when DspB and antimicrobial were added together (S. epidermidis biofilm [1]; buffer): ≥ 73%
- Synergy or compatibility with DspB, E: enzymatic (DspB [2]): E: synergy
- Enzymatic activity of DspB in the presence of the antimicrobial compared with DspB control (DspB [2]; wound gel): Higher enzymatic activity
- Synergy or compatibility with DspB, E: enzymatic (DspB [3]): E: synergy
- Effect of DspB on activity of the antimicrobial against biofilm embedded E. coli (E. coli biofilm; P<0.05): enhanced
- Biofilm inactivation (S. epidermidis biofilm [4]): >5 log log CFU
- Effect of DspB on activity of the antimicrobial against biofilm embedded S. epidermidis (S. epidermidis biofilm [4]): enhanced
- Synergy or compatibility with DspB, M: microbiological (biofilm dispersal assay; biofilm inactivation not tested) (S. epidermidis biofilm [5]): M: compatible
- Biofilm dispersal of gel containing DspB and antimicrobial compared with gel containing DspB alone (S. epidermidis biofilm [5]): similar

Compound: CNC1C(O)[C@@H](O[C@H]2C(N)C[C@H](N)C(O[C@H]3OC([C@@H](C)N)CCC3N)C2O)OC[C@]1(C)O (some centres unmarked) [Gentamicin sulfate]
- Synergy or compatibility with DspB, E: enzymatic (DspB [2]; [6]): E: compatible
- Biofilm dispersal of gel containing DspB and antimicrobial compared with gel containing DspB alone (S. epidermidis biofilm [5]): similar

Compound: Nisin
- Biofilm inactivation (S. epidermidis biofilm [4]): <0.5 log log CFU

Compound: C/C(=C\C(=O)OCCCCCCCCC(=O)O)C[C@@H]1OC[C@H](C[C@@H]2O[C@H]2[C@@H](C)[C@H](C)O)[C@@H](O)[C@H]1O [Mupirocin]
- Synergy or compatibility with DspB, E: enzymatic (DspB [2]; [6]): E: synergy
- DspB activity in the presence of the antimicrobial, enzymatic assay (DspB [2]; wound gel, for up to 2 h, relative to 100 μg/mL DspB control): > 100%

Compound: CCCCCCCCCCCCCCCC[n+]1ccccc1.[Cl-] [Cetylpyridinium chloride]
- Synergy or compatibility with DspB, E: enzymatic (DspB [2]): E: compatible
- Synergy or compatibility with DspB, E: enzymatic (DspB [3]): E: no synergy

Compound: CCCCCCCCN=c1ccn(CCCCCCCCCCn2ccc(=NCCCCCCCC)cc2)cc1.Cl.Cl [Octenidine dihydrochloride, octenidine dihydrochloride]
- Biofilm dispersal when 20 μg/ml DspB was mixed with the antimicrobial (S. epidermidis biofilm [1]; biofilms treated for 10 min, data not presented): no biofilm dispersal was observed
- Biofilm dispersal when DspB and antimicrobial were added together for 2 h (S. epidermidis biofilm [1]; buffer, 100 μg/ml DspB, 0.01% ODC): minimal biofilm dispersal
- Synergy or compatibility with DspB, E: enzymatic (DspB [2]; [6]): E: compatible
- Effect of DspB on activity of the antimicrobial against biofilm embedded E. coli (E. coli biofilm; P<0.05, dihydrochloride): enhanced activity
- Effect of DspB on activity of the antimicrobial against biofilm embedded E. coli (E. coli biofilm; P<0.05, listed as ODC, dihydrochloride): enhanced
- Biofilm inactivation (S. epidermidis biofilm [4]): >5 log log CFU
- Effect of DspB on activity of the antimicrobial against biofilm embedded S. epidermidis (S. epidermidis biofilm [4]; dihydrochloride): enhanced activity
- Effect of DspB on activity of the antimicrobial against biofilm embedded S. epidermidis (S. epidermidis biofilm [4]; listed as ODC, dihydrochloride): enhanced
- Biofilm dispersal of gel containing DspB and antimicrobial compared with gel containing DspB alone (S. epidermidis biofilm [5]): similar

Compound: O=C/C=C/c1ccccc1 [Cinnamaldehyde]
- Biofilm dispersal when DspB and antimicrobial were added together (S. epidermidis biofilm [1]; buffer): ≥ 78%
- Synergy or compatibility with DspB, E: enzymatic (DspB [2]; [6]): E: synergy
- Enzymatic activity of DspB in the presence of the antimicrobial compared with DspB control (DspB [2]; wound gel): Higher enzymatic activity
- Effect of DspB on activity of the antimicrobial against biofilm embedded E. coli (E. coli biofilm; P<0.05): enhanced
- Effect of DspB on activity of the antimicrobial against biofilm embedded S. epidermidis (S. epidermidis biofilm [4]): enhanced
- Biofilm dispersal of gel containing DspB and antimicrobial compared with gel containing DspB alone (S. epidermidis biofilm [5]): similar

Compound: CCCCC(CC)CNC(=N)NC(=N)NCCCCCCNC(=N)NC(=N)NCC(CC)CCCC (centres unmarked) [Alexidine, Alexidine dihydrochloride]
- Biofilm inactivation (S. epidermidis biofilm [4]): >5 log log CFU
- Effect of DspB on activity of the antimicrobial against biofilm embedded S. epidermidis (S. epidermidis biofilm [4]): enhanced

Compound: C=CC(C)(O)CCC=C(C)CCC=C(C)C (centres unmarked) [Nerolidol]
- Biofilm inactivation (S. epidermidis biofilm [4]): <0.5 log log CFU

Compound: CC(C)=CCC/C(C)=C\CO [Nerol]
- Biofilm inactivation (S. epidermidis biofilm [4]): <0.5 log log CFU

Compound: O=C(O)C=Cc1ccccc1 [Cinnamic acid]
- Biofilm inactivation (S. epidermidis biofilm [4]): <0.5 log log CFU
- Effect of DspB on activity of the antimicrobial against biofilm embedded S. epidermidis (S. epidermidis biofilm [4]): did not show any enhancement

Compound: CC(=O)CC/C=C(\C)CCC=C(C)C [Geranyl acetone]
- Biofilm inactivation (S. epidermidis biofilm [4]): <0.5 log log CFU

Compound: Cc1ncc([N+](=O)[O-])n1CCO [Metronidazole]
- Synergy or compatibility with DspB, E: enzymatic (DspB [2]; [6]): E: compatible
- Biofilm dispersal of gel containing DspB and antimicrobial compared with gel containing DspB alone (S. epidermidis biofilm [5]): similar

Compound: Cc1cc(O)cc(C)c1Cl [Chloroxylenol]
- Biofilm dispersal when DspB and antimicrobial were added together (S. epidermidis biofilm [1]; buffer): ≥ 74%
- Biofilm inactivation (S. epidermidis biofilm [4]): >5 log log CFU

Compound: CC[C@H](C)CCCCC(=O)N[C@@H](CCN)C(=O)N[C@H](C(=O)NC(CCN)C(=O)N[C@H]1CCNC(=O)[C@H]([C@@H](C)O)NC(=O)[C@H](CCN)NC(=O)[C@H](CCN)NC(=O)[C@H](CC(C)C)NC(=O)[C@@H](Cc2ccccc2)NC(=O)[C@@H](CCN)NC1=O)[C@@H](C)O (some centres unmarked) [Polymyxin B sulfate] (X1-[Dab]T[ξDab][Dab][dDab][dF]L[Dab][Dab]T; lactam 4-C)
- Synergy or compatibility with DspB, E: enzymatic (DspB [2]; [6]): E: compatible
- Biofilm dispersal of gel containing DspB and antimicrobial compared with gel containing DspB alone (S. epidermidis biofilm [5]): similar

Compound: Cc1ccc(C(C)C)c(O)c1 [Thymol]
- Biofilm inactivation (S. epidermidis biofilm [4]): >5 log log CFU
- Effect of DspB on activity of the antimicrobial against biofilm embedded S. epidermidis (S. epidermidis biofilm [4]): enhanced

Compound: BisEDT
- Biofilm inactivation (S. epidermidis biofilm [4]): <1 log log CFU

Compound: COc1ccc2cc3[n+](cc2c1OC)CCc1cc2c(cc1-3)OCO2 [Berberine hydrochloride]
- Effect of DspB on activity of the antimicrobial against biofilm embedded S. epidermidis (S. epidermidis biofilm [4]; hydrochloride): no synergistic activity
- Effect of DspB on activity of the antimicrobial against biofilm embedded S. epidermidis (S. epidermidis biofilm [4]; listed as berberine hydrochloride, hydrochloride): did not enhance activity; also recorded: antagonism

Compound: Benzalkonium chloride
- Synergy or compatibility with DspB, M: microbiological (biofilm dispersal assay; biofilm inactivation not tested) (S. epidermidis biofilm [1]): M: no synergy
- Synergy or compatibility with DspB, E: enzymatic (DspB [2]): E: compatible
- Synergy or compatibility with DspB, E: enzymatic (DspB [3]): E: no synergy
- Synergy or compatibility with DspB, M: microbiological (biofilm dispersal assay; biofilm inactivation not tested) (S. epidermidis biofilm [5]): M: compatible
